# Legend:
# Assay in all cases: KinaseProfiler off-target kinase profiling
# Type in all cases: biochemical
# Settings in all cases: 10 μM, ATP near Km
# CDK9/cyclinT1 = biological target: T1, CDK9/cyclinT1 (Homo sapiens, UniProt P50750)
# T1 construct: purchased Millipore, Inc. (KinaseProfiler service)
# Procedure, shortened: (§1)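 Each kinase is assayed with ATP close to its own Km in the presence of 10 μM compound, in duplicate. The two replicates are averaged and expressed as percent of control.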
# PKCeta = biological target: T2, PKCeta (Homo sapiens, UniProt P24723)
# T2 construct: purchased Millipore, Inc. (KinaseProfiler service)
# Procedure, shortened: as §1
# TAO3 = biological target: T3, TAO3 (Homo sapiens, UniProt Q9H2K8)
# T3 construct: purchased Millipore, Inc. (KinaseProfiler service)
# Procedure, shortened: as §1
# MKK6 = biological target: T4, MKK6 (Homo sapiens, UniProt P52564)
# T4 construct: purchased Millipore, Inc. (KinaseProfiler service)
# Procedure, shortened: as §1
# p38alpha = biological target: T5, p38alpha (Homo sapiens, UniProt Q16539)
# T5 construct: purchased Millipore, Inc. (KinaseProfiler service)
# Procedure, shortened: as §1
# FAK2 = biological target: T6, FAK2 (Homo sapiens, UniProt Q14289)
# T6 construct: purchased Millipore, Inc. (KinaseProfiler service)
# Procedure, shortened: as §1
# MARK2 = biological target: T7, MARK2 (Homo sapiens, UniProt Q7KZI7)
# T7 construct: purchased Millipore, Inc. (KinaseProfiler service)
# Procedure, shortened: as §1
# EphB1 = biological target: T8, EphB1 (Homo sapiens, UniProt P54762)
# T8 construct: purchased Millipore, Inc. (KinaseProfiler service)
# Procedure, shortened: as §1
# WNK3 = biological target: T9, WNK3 (Homo sapiens, UniProt Q9BYP7)
# T9 construct: purchased Millipore, Inc. (KinaseProfiler service)
# Procedure, shortened: as §1
# p38beta = biological target: T10, p38beta (Homo sapiens, UniProt Q15759)
# T10 construct: purchased Millipore, Inc. (KinaseProfiler service)
# Procedure, shortened: as §1
# PKCalpha = biological target: T11, PKCalpha (Homo sapiens, UniProt P17252)
# T11 construct: purchased Millipore, Inc. (KinaseProfiler service)
# Procedure, shortened: as §1
# HIPK1 = biological target: T12, HIPK1 (Homo sapiens, UniProt Q86Z02)
# T12 construct: purchased Millipore, Inc. (KinaseProfiler service)
# Procedure, shortened: as §1
# FGFR4 = biological target: T13, FGFR4 (Homo sapiens, UniProt P22455)
# T13 construct: purchased Millipore, Inc. (KinaseProfiler service)
# Procedure, shortened: as §1
# Pim-1 = biological target: T14, Pim-1 (Homo sapiens, UniProt P11309)
# T14 construct: purchased Millipore, Inc. (KinaseProfiler service)
# Procedure, shortened: as §1
# IKKalpha = biological target: T15, IKKalpha (Homo sapiens, UniProt O15111)
# T15 construct: purchased Millipore, Inc. (KinaseProfiler service)
# Procedure, shortened: as §1
# p38delta = biological target: T16, p38delta (Homo sapiens, UniProt O15264)
# T16 construct: purchased Millipore, Inc. (KinaseProfiler service)
# Procedure, shortened: as §1
# CDK7/cyclinH/MAT1 = biological target: T17, CDK7/cyclinH/MAT1 (Homo sapiens, UniProt P50613)
# T17 construct: purchased Millipore, Inc. (KinaseProfiler service)
# Procedure, shortened: as §1
# AKT1 = biological target: T18, AKT1 (Homo sapiens, UniProt P31749)
# T18 construct: purchased Millipore (KinaseProfiler service)
# Procedure, shortened: as §1
# PTK6 = biological target: T19, PTK6 (Homo sapiens, UniProt Q13882)
# T19 construct: purchased Millipore, Inc. (KinaseProfiler service)
# Procedure, shortened: as §1
# EphA8 = biological target: T20, EphA8 (Homo sapiens, UniProt P29322)
# T20 construct: purchased Millipore, Inc. (KinaseProfiler service)
# Procedure, shortened: as §1
# NEK6 = biological target: T21, NEK6 (Homo sapiens, UniProt Q9HC98)
# T21 construct: purchased Millipore, Inc. (KinaseProfiler service)
# Procedure, shortened: as §1
# MEK1 = biological target: T22, MEK1 (Homo sapiens, UniProt Q02750)
# T22 construct: purchased Millipore, Inc. (KinaseProfiler service)
# Procedure, shortened: as §1
# CAMK2b = biological target: T23, CAMK2b (Homo sapiens, UniProt Q13554)
# T23 construct: purchased Millipore (KinaseProfiler service)
# Procedure, shortened: as §1
# LOK = biological target: T24, LOK (Homo sapiens, UniProt O94804)
# T24 construct: purchased Millipore, Inc. (KinaseProfiler service)
# Procedure, shortened: as §1
# PRKG1alpha = biological target: T25, PRKG1alpha (Homo sapiens, UniProt Q13976)
# T25 construct: purchased Millipore, Inc. (KinaseProfiler service)
# Procedure, shortened: as §1
# PDK1 = biological target: T26, PDK1 (Homo sapiens, UniProt O15530)
# T26 construct: purchased Millipore, Inc. (KinaseProfiler service)
# Procedure, shortened: as §1
# EphB4 = biological target: T27, EphB4 (Homo sapiens, UniProt P54760)
# T27 construct: purchased Millipore, Inc. (KinaseProfiler service)
# Procedure, shortened: as §1
# PRKG1beta = biological target: T28, PRKG1beta (Homo sapiens, UniProt Q13976)
# T28 construct: purchased Millipore, Inc. (KinaseProfiler service)
# Procedure, shortened: as §1
# NEK7 = biological target: T29, NEK7 (Homo sapiens, UniProt Q8TDX7)
# T29 construct: purchased Millipore, Inc. (KinaseProfiler service)
# Procedure, shortened: as §1
# MSK1 = biological target: T30, MSK1 (Homo sapiens, UniProt O75582)
# T30 construct: purchased Millipore, Inc. (KinaseProfiler service)
# Procedure, shortened: as §1
# PKCtheta = biological target: T31, PKCtheta (Homo sapiens, UniProt Q04759)
# T31 construct: purchased Millipore, Inc. (KinaseProfiler service)
# Procedure, shortened: as §1
# JNK1alpha1 = biological target: T32, JNK1alpha1 (Homo sapiens, UniProt P45983)
# T32 construct: purchased Millipore, Inc. (KinaseProfiler service)
# Procedure, shortened: as §1
# ARK5 = biological target: T33, ARK5 (Homo sapiens, UniProt O60285)
# T33 construct: purchased Millipore (KinaseProfiler service)
# Procedure, shortened: as §1
# Hck = biological target: T34, Hck (Homo sapiens, UniProt P08631)
# T34 construct: purchased Millipore, Inc. (KinaseProfiler service)
# Procedure, shortened: as §1
# CDK3/cyclinE = biological target: T35, CDK3/cyclinE (Homo sapiens, UniProt Q00526)
# T35 construct: purchased Millipore, Inc. (KinaseProfiler service)
# Procedure, shortened: as §1
# BrSK2 = biological target: T36, BrSK2 (Homo sapiens, UniProt Q8IWQ3)
# T36 construct: purchased Millipore (KinaseProfiler service)
# Procedure, shortened: as §1
# Ros = biological target: T37, Ros (Homo sapiens, UniProt P08922)
# T37 construct: purchased Millipore, Inc. (KinaseProfiler service)
# Procedure, shortened: as §1
# PKCepsilon = biological target: T38, PKCepsilon (Homo sapiens, UniProt Q02156)
# T38 construct: purchased Millipore, Inc. (KinaseProfiler service)
# Procedure, shortened: as §1
# CK1gamma3 = biological target: T39, CK1gamma3 (Homo sapiens, UniProt Q9Y6M4)
# T39 construct: purchased Millipore, Inc. (KinaseProfiler service)
# Procedure, shortened: as §1
# MuSK = biological target: T40, MuSK (Homo sapiens, UniProt O15146)
# T40 construct: purchased Millipore, Inc. (KinaseProfiler service)
# Procedure, shortened: as §1
# SRPK2 = biological target: T41, SRPK2 (Homo sapiens, UniProt P78362)
# T41 construct: purchased Millipore, Inc. (KinaseProfiler service)
# Procedure, shortened: as §1
# T20 sequence (P29322 28-1005): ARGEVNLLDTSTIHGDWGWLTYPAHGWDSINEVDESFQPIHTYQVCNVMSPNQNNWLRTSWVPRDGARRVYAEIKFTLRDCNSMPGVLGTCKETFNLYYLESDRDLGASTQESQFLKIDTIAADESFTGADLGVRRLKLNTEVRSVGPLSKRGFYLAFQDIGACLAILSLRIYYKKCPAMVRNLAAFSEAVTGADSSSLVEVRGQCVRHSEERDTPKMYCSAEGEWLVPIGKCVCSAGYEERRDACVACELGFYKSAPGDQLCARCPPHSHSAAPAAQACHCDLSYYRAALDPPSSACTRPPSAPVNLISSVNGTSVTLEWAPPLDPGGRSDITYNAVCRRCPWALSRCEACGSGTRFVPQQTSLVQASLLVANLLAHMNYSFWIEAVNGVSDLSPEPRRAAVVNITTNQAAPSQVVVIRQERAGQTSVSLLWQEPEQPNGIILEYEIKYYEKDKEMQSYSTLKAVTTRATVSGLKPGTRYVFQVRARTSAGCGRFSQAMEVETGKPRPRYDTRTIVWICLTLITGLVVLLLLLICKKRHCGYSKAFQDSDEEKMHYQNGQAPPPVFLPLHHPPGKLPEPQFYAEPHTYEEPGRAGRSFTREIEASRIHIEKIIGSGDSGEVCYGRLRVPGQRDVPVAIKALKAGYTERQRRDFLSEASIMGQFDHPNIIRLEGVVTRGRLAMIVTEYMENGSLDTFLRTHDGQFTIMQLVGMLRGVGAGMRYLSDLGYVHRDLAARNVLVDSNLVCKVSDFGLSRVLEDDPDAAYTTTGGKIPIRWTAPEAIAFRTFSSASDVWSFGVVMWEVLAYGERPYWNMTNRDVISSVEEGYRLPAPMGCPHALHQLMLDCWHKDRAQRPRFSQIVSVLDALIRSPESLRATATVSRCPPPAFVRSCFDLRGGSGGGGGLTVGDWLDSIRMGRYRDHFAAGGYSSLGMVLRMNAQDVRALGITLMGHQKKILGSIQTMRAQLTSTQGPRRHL
# T8 sequence (P54762 18-984): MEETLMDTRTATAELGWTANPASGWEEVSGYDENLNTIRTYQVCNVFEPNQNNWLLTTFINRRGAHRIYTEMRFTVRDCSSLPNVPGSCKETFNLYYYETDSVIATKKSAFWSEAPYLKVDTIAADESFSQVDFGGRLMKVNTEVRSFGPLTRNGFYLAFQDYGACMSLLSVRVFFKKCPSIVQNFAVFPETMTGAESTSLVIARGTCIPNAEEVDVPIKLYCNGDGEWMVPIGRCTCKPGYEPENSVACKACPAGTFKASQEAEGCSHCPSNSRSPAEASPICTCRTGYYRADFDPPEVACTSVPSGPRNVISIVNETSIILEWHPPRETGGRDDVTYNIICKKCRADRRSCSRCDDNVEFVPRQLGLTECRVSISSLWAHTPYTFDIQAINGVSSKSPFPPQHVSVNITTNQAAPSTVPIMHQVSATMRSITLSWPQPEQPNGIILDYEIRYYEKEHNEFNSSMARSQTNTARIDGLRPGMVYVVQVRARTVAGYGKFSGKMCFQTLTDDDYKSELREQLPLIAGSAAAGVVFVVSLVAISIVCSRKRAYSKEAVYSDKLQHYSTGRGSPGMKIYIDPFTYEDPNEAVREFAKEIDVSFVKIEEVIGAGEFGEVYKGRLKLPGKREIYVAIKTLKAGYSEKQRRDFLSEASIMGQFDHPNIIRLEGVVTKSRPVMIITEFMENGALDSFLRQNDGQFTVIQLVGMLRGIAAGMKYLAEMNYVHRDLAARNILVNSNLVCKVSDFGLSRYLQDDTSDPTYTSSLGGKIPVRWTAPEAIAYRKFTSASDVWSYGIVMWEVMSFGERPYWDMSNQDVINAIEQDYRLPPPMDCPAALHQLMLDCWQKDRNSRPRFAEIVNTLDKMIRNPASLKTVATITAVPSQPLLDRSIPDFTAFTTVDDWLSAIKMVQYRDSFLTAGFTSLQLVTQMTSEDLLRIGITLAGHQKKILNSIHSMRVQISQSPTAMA
# T32 sequence (P45983 1-384 isoform P45983-2): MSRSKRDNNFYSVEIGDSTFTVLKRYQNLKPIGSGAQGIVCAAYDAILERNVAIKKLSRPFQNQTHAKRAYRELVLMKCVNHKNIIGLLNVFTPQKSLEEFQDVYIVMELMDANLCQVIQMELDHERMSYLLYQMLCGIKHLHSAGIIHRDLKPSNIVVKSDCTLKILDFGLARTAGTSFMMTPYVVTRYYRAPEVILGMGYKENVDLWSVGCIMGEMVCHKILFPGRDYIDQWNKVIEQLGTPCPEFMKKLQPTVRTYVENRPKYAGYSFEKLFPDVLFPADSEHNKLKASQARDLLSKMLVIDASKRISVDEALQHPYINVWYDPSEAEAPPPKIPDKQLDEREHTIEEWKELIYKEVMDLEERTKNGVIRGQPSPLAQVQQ
# T21 sequence (Q9HC98 whole entry): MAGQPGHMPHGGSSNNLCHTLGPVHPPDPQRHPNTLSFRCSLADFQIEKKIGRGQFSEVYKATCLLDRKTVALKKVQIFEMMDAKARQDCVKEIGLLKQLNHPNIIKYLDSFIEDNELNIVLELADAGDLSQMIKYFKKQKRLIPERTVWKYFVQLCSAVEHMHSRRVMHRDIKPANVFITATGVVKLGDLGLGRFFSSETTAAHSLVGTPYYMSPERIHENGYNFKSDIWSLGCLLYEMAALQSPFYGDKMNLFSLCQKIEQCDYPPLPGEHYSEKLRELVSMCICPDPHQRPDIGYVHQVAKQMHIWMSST
# T17 sequence (P50613 whole entry): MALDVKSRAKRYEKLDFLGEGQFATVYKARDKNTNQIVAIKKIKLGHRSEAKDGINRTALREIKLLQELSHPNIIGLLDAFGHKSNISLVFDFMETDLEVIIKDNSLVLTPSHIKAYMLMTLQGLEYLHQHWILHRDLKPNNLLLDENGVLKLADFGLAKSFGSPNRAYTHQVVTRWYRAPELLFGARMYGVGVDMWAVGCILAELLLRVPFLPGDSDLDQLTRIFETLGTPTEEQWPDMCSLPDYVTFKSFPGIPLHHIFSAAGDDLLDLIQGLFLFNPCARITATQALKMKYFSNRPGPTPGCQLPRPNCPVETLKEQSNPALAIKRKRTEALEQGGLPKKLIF
# T17 sequence (P51946 whole entry partner): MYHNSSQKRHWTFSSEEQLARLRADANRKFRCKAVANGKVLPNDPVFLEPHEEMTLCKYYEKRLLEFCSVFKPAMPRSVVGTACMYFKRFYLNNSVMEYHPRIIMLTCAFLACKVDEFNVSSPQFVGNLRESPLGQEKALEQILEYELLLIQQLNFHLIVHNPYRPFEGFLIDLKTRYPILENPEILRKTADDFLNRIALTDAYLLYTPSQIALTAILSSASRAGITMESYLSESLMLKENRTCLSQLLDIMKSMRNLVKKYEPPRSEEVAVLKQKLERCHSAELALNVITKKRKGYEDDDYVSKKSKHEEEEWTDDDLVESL
# T17 sequence (P51948 whole entry partner): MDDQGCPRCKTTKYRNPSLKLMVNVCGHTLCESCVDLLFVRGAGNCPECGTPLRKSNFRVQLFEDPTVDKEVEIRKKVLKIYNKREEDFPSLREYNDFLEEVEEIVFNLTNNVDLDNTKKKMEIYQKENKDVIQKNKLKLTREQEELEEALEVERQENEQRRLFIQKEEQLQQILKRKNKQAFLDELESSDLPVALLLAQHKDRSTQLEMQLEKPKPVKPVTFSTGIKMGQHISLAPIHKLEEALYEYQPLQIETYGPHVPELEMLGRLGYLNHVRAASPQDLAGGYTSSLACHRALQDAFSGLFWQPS
# T10 sequence (Q15759 whole entry): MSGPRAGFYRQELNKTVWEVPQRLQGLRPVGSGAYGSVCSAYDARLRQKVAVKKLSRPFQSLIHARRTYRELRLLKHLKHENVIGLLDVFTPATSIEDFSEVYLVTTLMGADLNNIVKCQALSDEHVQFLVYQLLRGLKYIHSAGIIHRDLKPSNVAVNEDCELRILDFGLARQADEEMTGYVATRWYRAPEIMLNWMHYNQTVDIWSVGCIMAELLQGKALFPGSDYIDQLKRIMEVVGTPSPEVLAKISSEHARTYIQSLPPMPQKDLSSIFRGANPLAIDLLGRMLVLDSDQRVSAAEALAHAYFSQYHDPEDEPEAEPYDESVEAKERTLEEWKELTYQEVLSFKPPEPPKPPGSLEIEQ
# T4 sequence (P52564 whole entry): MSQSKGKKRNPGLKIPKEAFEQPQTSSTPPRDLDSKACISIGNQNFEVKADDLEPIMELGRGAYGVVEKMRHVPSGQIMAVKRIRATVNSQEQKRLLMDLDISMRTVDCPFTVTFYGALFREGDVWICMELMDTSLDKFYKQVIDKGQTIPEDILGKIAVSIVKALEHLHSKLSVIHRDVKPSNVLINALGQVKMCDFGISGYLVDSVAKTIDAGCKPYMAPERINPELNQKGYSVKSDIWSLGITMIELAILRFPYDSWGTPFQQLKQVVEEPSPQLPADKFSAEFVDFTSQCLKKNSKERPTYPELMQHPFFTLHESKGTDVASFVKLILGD
smiles,measurement,setting,value
"Cc1c(-c2cnn(C)c2)nn(-c2ccccc2)c1NC(=O)Nc1sc(C(F)(F)F)nc1-c1ccccc1 [Example 2, 1-(1′,4-dimethyl-1-phenyl-1H,1′H-[3,4′-bipyrazol]-5-yl)-3-(4-phenyl-2-(trifluoromethyl)thiazol-5-yl)urea]",Avg POC,CDK9/cyclinT1,108 POC
same,Avg POC,PKCeta,103.5 POC
same,Avg POC,TAO3,94 POC
same,Avg POC,MKK6,134 POC
same,Avg POC,p38alpha,91 POC
same,Avg POC,FAK2,107 POC
same,Avg POC,MARK2,100.5 POC
same,Avg POC,EphB1,136 POC
same,Avg POC,WNK3,112.5 POC
same,Avg POC,p38beta,106.5 POC
same,Avg POC,PKCalpha,102.5 POC
same,Avg POC,HIPK1,108 POC
same,Avg POC,FGFR4,141.5 POC
same,Avg POC,Pim-1,109.5 POC
same,Avg POC,IKKalpha,133 POC
same,Avg POC,p38delta,104.5 POC
same,Avg POC,CDK7/cyclinH/MAT1,113 POC
same,Avg POC,AKT1,133 POC
same,Avg POC,PTK6,113.5 POC
same,Avg POC,EphA8,118.5 POC
same,Avg POC,NEK6,117.5 POC
same,Avg POC,MEK1,103.5 POC
same,Avg POC,CAMK2b,102 POC
same,Avg POC,LOK,110.5 POC
same,Avg POC,PRKG1alpha,118 POC
same,Avg POC,PDK1,115 POC
same,Avg POC,EphB4,130 POC
same,Avg POC,PRKG1beta,119 POC
same,Avg POC,NEK7,119.5 POC
same,Avg POC,MSK1,151 POC
same,Avg POC,PKCtheta,130 POC
same,Avg POC,JNK1alpha1,113 POC
same,Avg POC,ARK5,102 POC
same,Avg POC,Hck,134.5 POC
same,Avg POC,CDK3/cyclinE,105 POC
same,Avg POC,BrSK2,116.5 POC
same,Avg POC,Ros,96.5 POC
same,Avg POC,PKCepsilon,102 POC
same,Avg POC,CK1gamma3,114 POC
same,Avg POC,MuSK,88 POC
same,Avg POC,SRPK2,113.5 POC

# Reference: patent US9981959B2, “Thiazolyl and oxazolyl urea, thiourea, guanidine and cyanoguanidine compounds as TrkA kinase inhibitors” (Array BioPharma Inc., priority 2012, dated 2018)
